Common to all, as to assay: relative viability (nuclei count vs DMSO), 5 days (fraction); higher = more cells survive
Compound in the experiment “Carfilzomib + Luminespib”: CC(C)C[C@H](NC(=O)[C@H](CCc1ccccc1)NC(=O)CN1CCOCC1)C(=O)N[C@@H](Cc1ccccc1)C(=O)N[C@@H](CC(C)C)C(=O)[C@@]1(C)CO1 [Carfilzomib] + CCNC(=O)c1noc(-c2cc(C(C)C)c(O)cc2O)c1-c1ccc(CN2CCOCC2)cc1 [Luminespib] (partner 0.01 µM)
The essentials: (§1)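 Lung cancer cell lines, seeded in 1536-well plates, were treated the following day by pin tool with a single drug or with five library-drug doses (not always all listed) in √10 steps on top of a fixed anchor-drug dose. Cells were fixed and nuclei stained in one step after 5 days, and nuclei were counted. Relative viability is the nuclei count for treated wells divided by that for vehicle wells, reported as medians of duplicate plates.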

Compound in the experiment “Olaparib + Vorinostat”: O=C(c1cc(Cc2n[nH]c(=O)c3ccccc23)ccc1F)N1CCN(C(=O)C2CC2)CC1 [Olaparib] + O=C(CCCCCCC(=O)Nc1ccccc1)NO [Vorinostat] (partner 1 µM)
The essentials:
as §1

Compound in the experiment “Carfilzomib + Linsitinib”: CC(C)C[C@H](NC(=O)[C@H](CCc1ccccc1)NC(=O)CN1CCOCC1)C(=O)N[C@@H](Cc1ccccc1)C(=O)N[C@@H](CC(C)C)C(=O)[C@@]1(C)CO1 [Carfilzomib] + C[C@]1(O)C[C@@H](c2nc(-c3ccc4ccc(-c5ccccc5)nc4c3)c3c(N)nccn32)C1 [Linsitinib] (partner 1 µM)
The essentials:
as §1

Compound in the experiment “Crizotinib + Vorinostat”: C[C@@H](Oc1cc(-c2cnn(C3CCNCC3)c2)cnc1N)c1c(Cl)ccc(F)c1Cl [Crizotinib] + O=C(CCCCCCC(=O)Nc1ccccc1)NO [Vorinostat] (partner 1 µM)
The method, boiled down:
as §1

Compound in the experiment “Carfilzomib + Navitoclax”: CC(C)C[C@H](NC(=O)[C@H](CCc1ccccc1)NC(=O)CN1CCOCC1)C(=O)N[C@@H](Cc1ccccc1)C(=O)N[C@@H](CC(C)C)C(=O)[C@@]1(C)CO1 [Carfilzomib] + CC1(C)CCC(c2ccc(Cl)cc2)=C(CN2CCN(c3ccc(C(=O)NS(=O)(=O)c4ccc(N[C@H](CCN5CCOCC5)CSc5ccccc5)c(S(=O)(=O)C(F)(F)F)c4)cc3)CC2)C1 [Navitoclax] (partner 0.5 µM)
The essentials: as §1

Consider NCI-H1793, for which the relative viability with Carfilzomib + Luminespib (first compound 0.003162 µM) stood at 0.216; in the experiment with Carfilzomib + Luminespib (first compound 0.01 µM) it was 0.172; with Carfilzomib + Luminespib (first compound 0.03162 µM) it was 0.181; in the experiment with Carfilzomib + Luminespib (first compound 0.1 µM), 0.154; with Olaparib + Vorinostat (first compound 0.08 µM) it was 0.841; with Olaparib + Vorinostat (first compound 0.253 µM), 0.707. Also, the relative viability worked out at 0.683 in the experiment with Olaparib + Vorinostat (first compound 2.53 µM); 0.679 with Olaparib + Vorinostat (first compound 8 µM); 0.737 in the experiment with Carfilzomib + Linsitinib (first compound 0.003162 µM); 0.761 in the experiment with Carfilzomib + Linsitinib (first compound 0.01 µM); 0.939 with Carfilzomib + Linsitinib (first compound 0.03162 µM); 0.585 in the experiment with Carfilzomib + Linsitinib (first compound 0.1 µM). The relative viability in the experiment with Crizotinib + Vorinostat (first compound 0.03162 µM) turned out to be 0.765; in the experiment with Crizotinib + Vorinostat (first compound 0.1 µM), 0.748; with Crizotinib + Vorinostat (first compound 1 µM), 0.896; with Carfilzomib + Navitoclax (first compound 0.003162 µM), 0.497; in the experiment with Carfilzomib + Navitoclax (first compound 0.01 µM), 0.52; with Carfilzomib + Navitoclax (first compound 0.03162 µM), 0.462. In the experiment with Carfilzomib + Navitoclax (first compound 0.1 µM), the relative viability was determined as 0.195.
